Patent US12447151B2, “Alkyne derivative, preparation method for same, and uses thereof” (ZHEJIANG HISUN PHARMACEUTICAL CO., LTD., priority 2019, dated 2025)

Key:
[1] = Oral pharmacokinetics in ICR mice; type: in vivo; details: male, mouse, plasma, Oral (5 mg/kg)
Method: Using ICR mice as the test animals, the mice were intragastrically administrated with the compound of the present invention. LC/MS/MS method was used to determine the drug concentration in the plasma at different times to study the pharmacokinetic characteristics of the compound of the present invention in mice.
An appropriate amount of the compound to be tested was weighed, and 0.5% sodium carboxymethylcellulose (containing 0.05% Tween80) was added. The mixture was vortexed, and sonicated so that the solid was ultrasonically dispersed uniformly to obtain a suspension; 100 μL×2 of the preparation were aspirated, and placed in 1.5-mL EP tubes, stored at 2 to 8° C. The concentration of the preparation was 0.5 mg/mL.
Twenty-seven healthy adult ICR male mice were fasted overnight and then intragastrically administered (dosage of administration was 5 mg/kg), and fed 4 hours after administration.
At 0.083 hours, 0.25 hours, 0.5 hours, 1 hour, 2 hours, 4 hours, 8 hours, 12 hours, and 24 hours after administration, 80 μL of blood was collected from the orbital vein. About 0.08 mL of blood was collected, and placed in EDTA-K2 anticoagulation tube. […] The collected plasma was stored at −40 to −20° C. before analysis. The […] method was used to determine the content of the test compound in the plasma of ICR mice after intragastric administration of different compounds.

[2] = system: CT26 mouse colon cancer cell subcutaneously transplanted tumor; assay: Growth inhibition of CT26 mouse colon cancer subcutaneously transplanted tumor model, alone and combined with PD-L1 monoclonal antibody; type: in vivo, BALB/c mice; details: 21st day after administration, Example 2 60 mg/kg gavage once a day, Anti-PD-L1 200 μg each i.p. once every 3 days, 4 times; for IR(%), tumor inhibition percentage: by tumor weight
Method: The anti-tumor effect of the combination of the compound of Example 2 and PD-L1 monoclonal antibody in CT26 mouse colon cancer cell subcutaneously transplanted tumor model was evaluated.
An appropriate amount of the compound of Example 2 was weighed into a centrifuge tube, and 5% NMP 95% PEG400 was added. The mixture was vortexed to a fully soluble solution with a concentration of 6 mg/mL, which was prepared before immediate use.
Recombinant anti-PD-L1 whole mouse monoclonal antibody (InVivoMAb anti-mouse PD-L1 (B7-H1), purchased from Bioxcell, Clone 10F.9G2, catalog number: BE0101, batch number: 720619F1) was diluted with PBS so that the concentration was 1 mg/mL, which was prepared before immediate use.
BALB/c mice, female, 7-8 weeks (the age of mice at the time of tumor cell inoculation), weight of 18.4-19.1 g, 9 mice in each group, purchased from Zhejiang Weitong Lihua Laboratory Animal Technology Co., Ltd., license number: SOCK (Zhejiang) 2019-0001.
CT26 mouse colon cancer cells were cultured in RPMI-1640 culture medium containing 10% fetal bovine serum, 100 U/mL penicillin and 100 μg/mL streptomycin. CT26 cells in the exponential growth phase were collected and resuspended in PBS to a suitable concentration for subcutaneous tumor inoculation in mice.
Female BALB/c mice were subcutaneously inoculated with 2.5×10^5 CT26 cells on the back. When the average tumor volume was about 127 mm^3, they were randomly grouped according to the size of the tumor. They were divided into 4 groups with each group of 9 animals, and the day of grouping was defined as day 0.
After tumor inoculation, routine monitoring included the effects of tumor growth and treatment on the normal behavior of animals. The specific content included the activity of the experimental animal, food and water consumption, weight gain or loss, abnormal conditions of eyes, coat and others. The tumor volume was weighed and measured twice a week. The administration period was 21 days. On the 21st day, the mice were weighed and the tumor volume was measured. The next day after the tumor volume was measured, the mice were sacrificed and tumor masses were taken and weighed. The tumor volume (TV), relative tumor volume (RTV), relative tumor growth rate (T/C), tumor inhibition percentage (IR) and relative tumor inhibition rate (TGI) were calculated, and statistical testing was performed. The calculation formulas were as follows:
(1) TV=1/2×a×b^2, where a and b represent the length and width of the tumor respectively;
(2) RTV=Vt/V0, where V0 is the tumor volume measured during administration in grouping (i.e. d0), and Vt is the tumor volume during each measurement;

For `C[C@H](NC(=O)c1c(N)nn2cccnc12)c1nc2cccc(C#Cc3cnn(C4CC4)c3)c2c(=O)n1-c1ccccc1` [Example 2, (S)-2-amino-N-(1-(5-((1-cyclopropyl-1H-pyrazol-4-yl)ethynyl)-4-oxo-3-phenyl-3,4-dihydroquinazolin-2-yl)ethyl)pyrazolo[1,5-a]pyrimidine-3-carboxamide], which AUC(0-inf) ([1]; read-out: Area under the curve AUC0-∞) is on record?
The AUC(0-inf) was 15100 ng·h/mL.

What about the bioavailability ([1]; read-out: Bioavailability F) of the same molecule?
The bioavailability was 60%.

What about the half-life ([1]; read-out: Half-life period T½ (converted)) of the same molecule?
Its half-life is 3.4 h.

What about the Cmax ([1]; read-out: Plasma concentration Cmax) of the same molecule?
The Cmax was 1730 ng/mL.

And the “RTV (x ± S), relative tumor volume” value [2]?
The value was 5.47 ± 1.05.

And the “TGI (%), relative tumor inhibition rate” value [2]?
Its value is 51.2%.

And the “Tumor weight (g) (x ± S)” value [2]?
Its value is 0.5942 ± 0.1730 g.

And the “TV (x ± S), tumor volume” value ([2]; in mm³ (unit assumed))?
Its value is 723.47 ± 159.50.

What about the “IR(%), tumor inhibition percentage” value ([2]; listed as Compound of Example 2) of the same molecule?
Its value is 52.1%.

What about the “IR(%), tumor inhibition percentage” value ([2]; listed as compound of Example 2) of the same molecule?
The value was 52.1%.
